# Laboratory results from US8137991B2, “Methods of reducing angiogenesis of age-related macular degeneration (AMD) or choroidal neovascularization by an anti-carboxyetheylpyrrole (CFP) antibody” (The Cleveland Clinic Foundation, priority 2006, dated 2012).
# Legend:
# [1] = test system: chick chorioallantoic membrane (CAM); assay: Chick chorioallantoic membrane (CAM) angiogenesis assay; assay type: in vivo, chick (white Leghorn embryos); conditions: VEGF 20 ng, positive control, 48 hours
# Protocol: Fertilized 3-day old white Leghorn eggs (CWRU, Squire valley farms) were cracked, and embryos with the yolk intact were placed in 100 mm×20 mm glass bottom Petri dishes. […] CAMs implanted with discs loaded with unmodified dipeptide, HSA, control buffer or with vascular endothelial growth factor (VEGF) were used as negative and positive controls respectively. After 48 hours of incubation, India ink was injected into the vascular system for better visualization of the vessels by a stereomicroscope. Images were captured with a Panasonic CCD camera. Samples were always compared on the same CAM to avoid egg-to-egg variability. For quantitative analysis of vessel density and leakage, CAM images were batch processed using customized macros generated in Image-Pro Plus 5.0 (Media Cybernetics, Silver Spring, Md.). Briefly, a region of interest (ROI) was traced around grafted tissue in each image, each image was then cropped to its ROI, converted to grayscale, and processed using a large spectral filter to enhance the appearance of vasculature whilst omitting presence of larger vessels (determined by filter width). […]
# The protein preparations were analyzed for endotoxin and determined to be free of contamination.
# [2] = test system: rat cornea (limbal blood vessels); assay: Rat corneal micropocket assay, angiogenic response to implanted pellets; assay type: in vivo, Sprague-Dawley rats; conditions: pellet 1 mm from limbus, CEP-HSA 1 μg, CEP-dipeptide 37 ng, dipeptide 41 ng
# Protocol: Hydron/sucralfate pellets containing unmodified or CEP modified HSA or dipeptide with or without neutralizing antibodies (monoclonal mouse anti-human VEGF, 1.5 μg, R&D systems (MAB293) or monoclonal anti-CEP antibody (Gu, X., et al. (2003) J. Biol. Chem.), 4 μg) were inserted into corneal micropockets (1 mm from the limbus) of Sprague-Dawley rats. Control mouse IgM, 4 μg (eBioscience, cat. #14-4752) and mouse IgG, 1.5 μg (Southern Biotechnology Inc., cat. #0104-01) antibodies were used in control pellets for comparison with anti-CEP and anti-VEGF antibodies respectively. Corneas were examined daily with the aid of a surgical microscope to monitor angiogenic responses to CEP modified peptide or proteins. […] A positive neovascularization response was recorded only if sustained directional in-growth of capillary sprouts and hairpin loops toward the pellet was observed. A negative response was recorded when either no growth is observed or only an occasional sprout or hairpin loop showing no evidence of sustained growth was detected. […] Angiogenic response was analyzed for peak vascular extension and total skeletal (vascular) length using Image-Pro Plus 5.0 (Media Cybernetics, Silver Spring, Md.). […] The resulting image, a single segmented object representing the overall dimensions of the vascular bed, was analyzed for maximum box-width, i.e. extent of vessel penetration. […]
Substance,average skeletal density of CAM vessels [1],growth of limbal blood vessels towards the pellet [2]
VEGF,~3.1,–
acetyl-Gly-Lys-O-methyl ester [dipeptide],–,did not induce this effect
